Laboratory results as given in US12285425B2, “Glucocorticoid receptor modulators to treat cervical cancer” (Corcept Therapeutics, Inc., priority 2017, dated 2025).

How the values were obtained:
[1] = tested on: human HeLa cervical cancer cells; assay: Implanted HeLa cervical cancer tumor growth in mice, CORT125134 and paclitaxel; assay type: in vivo
Method: Suspensions of human HeLa cervical cancer cells were injected subcutaneously into the right flank of 5-6 week old immunosuppressed female mice (BALB/c nude), five million cells per mouse. Tumors were allowed to grow until they reached a volume of 100-200 mm^3. Mice were then grouped into five groups, ten (10) per group. Group 1 was dosed with the paclitaxel vehicle (sterile saline) intravenously (i.v.) every 4 days and the CORT125134 vehicle orally (p.o.) (10% DMSO, 0.1% Tween 80 and 89.9% HPMC (0.5%), 10 ml/kg) every 4 days. Group 2 was dosed with paclitaxel (7.5 mg/kg) i.v. every 4 days. Group 3 was dosed with paclitaxel i.v. every 4 days and with CORT125134 (30 mg/kg) p.o. the day before the administration of paclitaxel and the same day as the administration of paclitaxel. Group 4 received paclitaxel (15 mg/kg) i.v. every 4 days. Group 5 received paclitaxel (15 mg/kg) i.v. every 4 days and CORT125134 (30 mg/kg) p.o. the day before and the day of paclitaxel (15 mg/kg) i.v. administration.
The longest (L) and shortest (S) diameters of the tumors were measured three times a week with electronic calipers and tumor volume was calculated using the formula for an ellipsoid sphere: S^2×L×(0.5). The tumor growth data are shown in FIG. 1, in which the mean tumor volume for each group of mice is plotted against the number of days of tumor growth since initiation of the treatment. All treatments provide benefit compared to vehicle alone.

MDA-MB-231 cells = assay: Triple negative breast cancer (TNBC) mouse xenograft model, CORT125134 with paclitaxel; assay type: in vivo, mice
Method: MDA-MB-231 cells (10 million cells per mouse) were injected orthotopically in the right mammary fat pad in groups of female Balb/c nude mice. When the tumors reached a volume of 100-200 mm^3, the mice were randomized into groups of 10 and treatment was initiated. Mice were treated as follows: group 1 received vehicle daily, group 2 received paclitaxel 5 mg/kg i.v. every 4 days, group 3 received paclitaxel 5 mg/kg i.v. every 4 days and CORT125134 30 mg/kg p.o. daily. Tumor volumes were measured 3 times a week in 2 dimensions using a caliper and the volume expressed in mm^3 using the formula V=0.5 a×b2 where a and b are the long and short diameters of the tumor, respectively. Dosing was continued for 28 days, but any mouse in poor condition or with a tumor exceeding 3000 mm^3 was terminated. For comparison between two groups an independent sample t-test was used; for comparison among three or more groups a one-way ANOVA was performed followed by multiple comparison procedures. A p-value <0.05 was considered to be statistically significant. The effect of CORT125134 in combination with paclitaxel in a triple negative breast cancer (TNBC) mouse xenograft model is shown in FIG. 2. Data represent mean+SEM.

SK-OV-3 cells = assay: Ovarian cancer mouse xenograft model, CORT125134 with gemcitabine/carboplatin; assay type: in vivo, mice
Method: CORT125134 was administered intraperitoneally (i.p.) on days 43, 44, 50 and 51, and gemcitabine/carboplatin was administered i.p. on days 44 and 51. Data represent mean values. SK-OV-3 cells (5 million cells per mouse) were injected in the right flank of female Balb/c nude mice. When tumors reached a volume of 200 mm^3 the mice were randomized into groups of 10 and treatment was initiated. Mice were treated as follows: group 1 received vehicle on dosing days 1, 2, 8 and 9, group 2 received gemcitabine (80 mg/kg i.p.) and carboplatin (15 mg/kg i.p.) on dosing days 2 and 9 and group 3 received gemcitabine/carboplatin in the same regimen as group 2, +CORT125134 (20 mg/kg i.p.) on dosing days 1, 2, 8 and 9. Tumor volumes were measured 3 times a week and tumor volumes were calculated as detailed above. Any mouse in poor condition or with a tumor exceeding 2000 mm^3 was terminated. The results were analyzed as indicated in Example 2 above.

22Rv1 cells = assay: Prostate cancer (CRPC) mouse xenograft model, CORT125134 with castration; assay type: in vivo; conditions: CORT125134 30 mg/kg p.o. daily for 21 days
Method: 22Rv1 cells (10 million cells per mouse) were injected in the right flank of male Balb/c nude mice. When the tumors reached a volume of 100-200 mm^3 the mice were randomized into groups of 10 and then 2 of the 3 groups were castrated. Treatment was initiated the day after castration as follows: group 1 (not castrated) received vehicle, group 2 (castrated) received vehicle, and group 3 (castrated) received CORT125134 30 mg/kg orally (p.o.) daily for 21 days. Tumor volumes were measured 3 times a week as described previously. Any mouse in poor condition or with a tumor exceeding 3000 mm^3 was terminated. The results were analyzed as indicated in Example 2 above. Data represent mean+SEM.

cervical cancer = assay: Treating a patient having cervical cancer with SGRM and a chemotherapeutic agent; assay type: in vivo, human; conditions: CORT125134 200 mg once a day for eight weeks with nab-paclitaxel 80 mg per square meter i.v. days 1, 8, 15 of 28-day cycle; one patient
Method: A patient complains of upper abdomen pain. They are experiencing loss of appetite, nausea and vomiting episodes, and significant weight loss. […] The suspected tumor is confirmed by histological analysis to be a cancerous tumor. The patient is treated with CORT125134 at a dose of 200 mg once a day for eight weeks in combination with an intravenous infusion of nab-paclitaxel at a dose of 80 mg per square meter of body-surface area as an intravenous infusion over 30 minutes on days 1, 8, and 15 of every 28-day cycle. Tumor load is monitored using enhanced MRI before, during and after the treatment. The imaging indicate that tumor size is decreasing, and the reduction is more than 50% at the end of the treatment period.

[2] = paclitaxel 5 mg/kg i.v. every 4 days + CORT125134 30 mg/kg p.o. daily
[3] = gemcitabine/carboplatin + CORT125134 20 mg/kg i.p.

Row | Compound | p, tumor growth comparison Group 3 vs Group 5 ([1]; CORT125134 30 mg/kg + paclitaxel 15 mg/kg (Group 5) vs CORT125134 30 mg/kg + paclitaxel 7.5 mg/kg (Group 3)) | p, tumor growth comparison Group 2 vs Group 3 ([1]; CORT125134 30 mg/kg p.o. day before and day of paclitaxel + paclitaxel 7.5 mg/kg i.v. every 4 days (Group 3) vs paclitaxel 7.5 mg/kg alone (Group 2)) | p, tumor growth comparison Group 4 vs Group 5 ([1]; CORT125134 30 mg/kg p.o. day before and day of paclitaxel + paclitaxel 15 mg/kg i.v. every 4 days (Group 5) vs paclitaxel 15 mg/kg alone (Group 4)) | tumor growth, combination of paclitaxel and CORT125134 compared with paclitaxel alone ([1]; CORT125134 30 mg/kg p.o. with paclitaxel 7.5 or 15 mg/kg i.v., either dose of paclitaxel) | p, combination compared to paclitaxel alone (MDA-MB-231 cells; [2]) | p, combination compared to vehicle treated mice (MDA-MB-231 cells; [2]) | effect on tumor growth, combination of paclitaxel and CORT125134 (MDA-MB-231 cells; paclitaxel 5 mg/kg i.v. every 4 days + CORT125134 30 mg/kg p.o. daily, 28 days) | effect on tumor growth, combination of gemcitabine/carboplatin with CORT125134 (SK-OV-3 cells; gemcitabine 80 mg/kg + carboplatin 15 mg/kg i.p. dosing days 2, 9 + CORT125134 20 mg/kg i.p. dosing days 1, 2, 8, 9) | p, combination compared to vehicle (SK-OV-3 cells; [3]) | p, combination compared with carboplatin/gemcitabine (SK-OV-3 cells; [3]) | effect on tumor growth, CORT125134 in castrated mice compared to mice not castrated (22Rv1 cells) | p, CORT125134 in castrated mice compared to mice not castrated (22Rv1 cells) | p, castration and CORT125134 vs castration alone (22Rv1 cells; castrated mice) | tumor growth, combination of castration and CORT125134 compared with castration alone (22Rv1 cells; castrated mice) | reduction of tumor size at the end of the treatment period (enhanced MRI) (cervical cancer) | p, tumor growth comparison Group 1 vs Group 2 ([1]; paclitaxel 7.5 mg/kg i.v. every 4 days (Group 2) vs vehicle (Group 1)) | p, tumor growth comparison Group 1 vs Group 4 ([1]; paclitaxel 15 mg/kg i.v. every 4 days (Group 4) vs vehicle (Group 1)) | p compared with vehicle treated mice, paclitaxel alone (MDA-MB-231 cells; paclitaxel 5 mg/kg i.v. every 4 days) | effect on tumor growth, paclitaxel alone (MDA-MB-231 cells; paclitaxel 5 mg/kg i.v. every 4 days, 28 days)
1 | Cn1cc(S(=O)(=O)N2CCC3=Cc4c(cnn4-c4ccc(F)cc4)C[C@]3(C(=O)c3cc(C(F)(F)F)ccn3)C2)cn1 [CORT125134, (R)-(1-(4-fluorophenyl)-6-((1-methyl-1H-pyrazol-4-yl)sulfonyl)-4,4a,5,6,7,8-hexahydro-1H-pyrazolo[3,4-g]isoquinolin-4a-yl)(4-(trifluoromethyl)pyridin-2-yl)methanone] | 0.0009 | 0.008 | <0.0001 | more effective than paclitaxel alone | < 0.05 | < 0.05 | significant inhibition of tumor growth | significant inhibition of tumor growth | < 0.001 | < 0.01 | inhibited tumor growth | < 0.0001 | < 0.05 | more effective than castration alone | more than 50% |  |  |  | 
2 | CC(=O)O[C@H]1C(=O)[C@@]2(C)[C@H]([C@H](OC(=O)c3ccccc3)[C@]3(O)C[C@H](OC(=O)[C@H](O)[C@@H](NC(=O)c4ccccc4)c4ccccc4)C(C)=C1C3(C)C)[C@]1(OC(C)=O)CO[C@@H]1C[C@@H]2O [paclitaxel, reference compound] |  |  |  |  |  |  |  |  |  |  |  |  |  |  |  | 0.0281 | 0.0006 | not significant | ineffective
